Data from ChEMBL document CHEMBL3046822, “Synthesis, antiplatelet aggregation activity, and molecular modeling study of novel substituted-piperazine analogues” (2011).
Activity calls are given as the source filed them. The calls are words filed in the database; no cut-off is given here.

Legend:
[1] = Antiaggregating activity in Homo sapiens (human) platelet rich plasma assessed as collagen-induced platelet aggregation at 0.1 uM incubated for 4 min prior to collagen-induction measured for 5.5 min by turbidometric analysis (reference value: 50 to 98%); format: functional
[2] = Antiaggregating activity in Homo sapiens (human) platelet rich plasma assessed as ristocetin-induced platelet aggregation at 0.1 uM incubated for 4 min prior to ristocetin-induction measured for 5.5 min by turbidometric analysis (reference value: 65 to 99%); format: functional
Platelet [3] = experiment: Antiaggregating activity in Homo sapiens (human) platelet rich plasma assessed as inhibition of adrenaline-induced platelet aggregation at 0.1 uM incubated for 4 min prior to adrenaline-induction measured for 5.5 min by turbidometric analysis; format: functional, cell-free
Platelet [4] = experiment: Antiaggregating activity in Homo sapiens (human) platelet rich plasma assessed as inhibition of collagen-induced platelet aggregation at 0.25 uM incubated for 4 min prior to collagen-induction measured for 5.5 min by turbidometric analysis; format: functional
Platelet [5] = experiment: Antiaggregating activity in Homo sapiens (human) platelet rich plasma assessed as inhibition of arachidonic acid-induced platelet aggregation at 0.25 uM incubated for 4 min prior to arachidonic acid-induction measured for 5.5 min by turbidometric analysis; format: functional, cell-free
[6] = Antiaggregating activity in Homo sapiens (human) platelet rich plasma assessed as disaggregation of ristocetin-induced platelet aggregation at 0.25 uM incubated for 4 min prior to ristocetin-induction measured for 5.5 min by turbidometric analysis relative to control; format: functional
Platelet [7] = experiment: Antiaggregating activity in Homo sapiens (human) platelet rich plasma assessed as inhibition of collagen-induced platelet aggregation at 1 uM incubated for 4 min prior to collagen-induction measured for 5.5 min by turbidometric analysis; format: functional, cell-free
Platelet [8] = experiment: Antiaggregating activity in Homo sapiens (human) platelet rich plasma assessed as inhibition of arachidonic acid-induced platelet aggregation at 0.1 uM incubated for 4 min prior to arachidonic acid-induction measured for 5.5 min by turbidometric analysis; format: functional, cell-free
Platelet [9] = experiment: Antiaggregating activity in Homo sapiens (human) platelet rich plasma assessed as inhibition of arachidonic acid-induced platelet aggregation at 1 uM incubated for 4 min prior to arachidonic acid-induction measured for 5.5 min by turbidometric analysis; format: functional, cell-free
Platelet [10] = experiment: Antiaggregating activity in Homo sapiens (human) platelet rich plasma assessed as inhibition of collagen-induced platelet aggregation at 0.5 uM incubated for 4 min prior to collagen-induction measured for 5.5 min by turbidometric analysis; format: functional, cell-free
Platelet [11] = experiment: Antiaggregating activity in Homo sapiens (human) platelet rich plasma assessed as inhibition of arachidonic acid-induced platelet aggregation at 0.5 uM incubated for 4 min prior to arachidonic acid-induction measured for 5.5 min by turbidometric analysis; format: functional
[12] = Antiaggregating activity in Homo sapiens (human) platelet rich plasma assessed as ristocetin-induced platelet aggregation at 1 uM incubated for 4 min prior to ristocetin-induction measured for 5.5 min by turbidometric analysis (reference value: 65 to 99%); format: functional
Platelet [13] = experiment: Antiaggregating activity in Homo sapiens (human) platelet rich plasma assessed as inhibition of adrenaline-induced platelet aggregation at 0.5 uM incubated for 4 min prior to adrenaline-induction measured for 5.5 min by turbidometric analysis; format: functional, cell-free
[14] = Antiaggregating activity in Homo sapiens (human) platelet rich plasma assessed as disaggregation of ADP-induced platelet aggregation at 0.25 uM incubated for 4 min prior to ADP-induction measured for 5.5 min by turbidometric analysis relative to control; format: functional
Platelet [15] = experiment: Antiaggregating activity in Homo sapiens (human) platelet rich plasma assessed as inhibition of ADP-induced platelet aggregation at 1 uM incubated for 4 min prior to ADP-induction measured for 5.5 min by turbidometric analysis; format: functional, cell-free
Platelet [16] = experiment: Antiaggregating activity in Homo sapiens (human) platelet rich plasma assessed as inhibition of ADP-induced platelet aggregation at 0.5 uM incubated for 4 min prior to ADP-induction measured for 5.5 min by turbidometric analysis; format: functional, cell-free
[17] = Antiaggregating activity in Homo sapiens (human) platelet rich plasma assessed as ADP-induced platelet aggregation at 0.1 uM incubated for 4 min prior to ADP-induction measured for 5.5 min by turbidometric analysis (reference value: 54 to 88%); format: functional
Platelet [18] = experiment: Antiaggregating activity in Homo sapiens (human) platelet rich plasma assessed as inhibition of adrenaline-induced platelet aggregation at 1 uM incubated for 4 min prior to adrenaline-induction measured for 5.5 min by turbidometric analysis; format: functional, cell-free
Platelet [19] = experiment: Antiaggregating activity in Homo sapiens (human) platelet rich plasma assessed as inhibition of adrenaline-induced platelet aggregation at 0.25 uM incubated for 4 min prior to adrenaline-induction measured for 5.5 min by turbidometric analysis; format: functional, cell-free
[20] = Antiaggregating activity in Homo sapiens (human) platelet rich plasma assessed as disaggregation of ristocetin-induced platelet aggregation at 0.5 uM incubated for 4 min prior to ristocetin-induction measured for 5.5 min by turbidometric analysis relative to control; format: functional
[21] = Antiaggregating activity in Homo sapiens (human) platelet rich plasma assessed as ADP-induced platelet aggregation at 0.25 uM incubated for 4 min prior to ADP-induction measured for 5.5 min by turbidometric analysis (reference value: 54 to 88%); format: functional
[22] = Antiaggregating activity in Homo sapiens (human) platelet rich plasma assessed as ristocetin-induced platelet aggregation at 0.5 uM incubated for 4 min prior to ristocetin-induction measured for 5.5 min by turbidometric analysis (reference value: 65 to 99%); format: functional
[23] = Antiaggregating activity in Homo sapiens (human) platelet rich plasma assessed as ADP-induced platelet aggregation at 0.5 uM incubated for 4 min prior to ADP-induction measured for 5.5 min by turbidometric analysis (reference value: 54 to 88%); format: functional
[24] = Antiaggregating activity in Homo sapiens (human) platelet rich plasma assessed as arachidonic acid-induced platelet aggregation at 0.1 uM incubated for 4 min prior to arachidonic acid-induction measured for 5.5 min by turbidometric analysis (reference value: 55 to 100%); format: functional
[25] = Antiaggregating activity in Homo sapiens (human) platelet rich plasma assessed as collagen-induced platelet aggregation at 0.25 uM incubated for 4 min prior to collagen-induction measured for 5.5 min by turbidometric analysis (reference value: 50 to 98%); format: functional
[26] = Antiaggregating activity in Homo sapiens (human) platelet rich plasma assessed as disaggregation of arachidonic acid-induced platelet aggregation at 0.25 uM incubated for 4 min prior to arachidonic acid-induction measured for 5.5 min by turbidometric analysis relative to control; format: functional
[27] = Antiaggregating activity in Homo sapiens (human) platelet rich plasma assessed as ristocetin-induced platelet aggregation at 0.25 uM incubated for 4 min prior to ristocetin-induction measured for 5.5 min by turbidometric analysis (reference value: 65 to 99%); format: functional
[28] = Antiaggregating activity in Homo sapiens (human) platelet rich plasma assessed as disaggregation of arachidonic acid-induced platelet aggregation at 0.5 uM incubated for 4 min prior to arachidonic acid-induction measured for 5.5 min by turbidometric analysis relative to control; format: functional

Compound | Activity [1] [%] | Activity [2] [%] | inhibition (Platelet [3]) | inhibition (Platelet [7]) | inhibition (Platelet [9]) | inhibition (Platelet [10]) | Activity [12] [%] | inhibition (Platelet [13]) | inhibition (Platelet [15]) | Activity [17] [%] | inhibition (Platelet [18]) | inhibition (Platelet [19]) | also measured
Br.O=C(C1CCCN(Cc2ccc([N+](=O)[O-])cc2)C1)N1CCN(c2ccccc2Cl)CC1 (stereo not given) | 58 | 66 | Active | Active | Active | Active | 23 | Active | Active | 57 | Active | Active | inhibition (Platelet [4]): Active; inhibition (Platelet [5]): Active; Activity [6]: 58%; inhibition (Platelet [8]): Active; inhibition (Platelet [11]): Active; Activity [14]: 28%; inhibition (Platelet [16]): Active; Activity [20]: 50%
Br.O=C(C1CCCN(Cc2ccc(Br)cc2)C1)N1CCN(c2ccccn2)CC1 (stereo not given) | 67 | 91 | Active | Active | Active | Active | 24 | Active | Active | 76 | Active | Active | Activity [21]: 65%; Activity [22]: 63%; Activity [23]: 18%; Activity [24]: 72%; Activity [25]: 64%; Activity [26]: 22%; Activity [27]: 81%; Activity [28]: 28%
